Laboratory results published in US9469615B2, “Quinoxalines and AZA-quinoxalines as CRTH2 receptor modulators” (Merck Sharp & Dohme Corp., priority 2010, dated 2016).

These compounds were tested against T1, hCRTH2 (Homo sapiens, UniProt Q9Y5Y4) (assay: Radioligand binding assay ([3H]PGD2 competition, HEK-hCRTH2 membranes)). Conditions: [3H]PGD2 binding, values in text.
T1 construct: expressed in transfected cells; host or cells: HEK (human embryonic kidney) cells expressing hCRTH2; membrane preparation
T1 sequence (Q9Y5Y4 1-395): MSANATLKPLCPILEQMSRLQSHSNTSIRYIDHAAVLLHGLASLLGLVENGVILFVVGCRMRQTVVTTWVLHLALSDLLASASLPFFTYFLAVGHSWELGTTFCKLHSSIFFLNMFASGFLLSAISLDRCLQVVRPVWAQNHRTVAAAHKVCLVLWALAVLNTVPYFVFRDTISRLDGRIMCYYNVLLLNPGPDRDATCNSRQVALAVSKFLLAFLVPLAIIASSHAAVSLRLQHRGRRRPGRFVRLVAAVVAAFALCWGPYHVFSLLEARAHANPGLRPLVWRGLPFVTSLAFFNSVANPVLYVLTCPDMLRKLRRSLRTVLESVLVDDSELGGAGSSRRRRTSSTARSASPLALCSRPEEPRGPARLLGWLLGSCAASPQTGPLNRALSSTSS
Procedure, shortened: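 Competition binding with 3.0 nM [3H]PGD2 and 8-20 μg HEK-hCRTH2 membrane protein in 50 mM Tris-HCl pH 7.4, 1 mM EDTA, 2 mM MnCl2, 1% Me2SO, 60 min at room temperature. Nonspecific binding defined with 10 μM PGD2; bound radioactivity counted after filtration.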

SMILES | Ki [nM]
O=C(O)CCCCc1nc2cc(C(=O)N[C@H]3CCS(=O)(=O)c4ccccc43)ccc2nc1-c1ccc(F)cc1 [compound 709, (S)-5-(7-((1,1-dioxidothiochroman-4-yl)carbamoyl)-3-(4-fluorophenyl)quinoxalin-2-yl)pentanoic acid] | 18.4

Same assay, conditions: [3H]PGD2 competition, Table B

SMILES | Ki [nM]
Cc1cc(N2CCN(C(=O)c3ccc4nc(-c5ccc(Cl)cc5)c(CCCCC(=O)O)nc4c3)CC2)cc(C)n1 [compound 703, 5-(3-(4-chlorophenyl)-7-(4-(2,6-dimethylpyridin-4-yl)piperazine-1-carbonyl)quinoxalin-2-yl)pentanoic acid] | 201 to 700
O=C(O)CCCCc1nc2cc(C(=O)N3C[C@H]4CC[C@@H](C3)N4Cc3ccccc3)ccc2nc1-c1ccc(Cl)cc1 [compound 704, 5-(7-((1R,5S)-8-benzyl-3,8-diazabicyclo[3.2.1]octane-3-carbonyl)-3-(4-chlorophenyl)quinoxalin-2-yl)pentanoic acid] | 2.1 to 20
O=C(O)CCCCc1nc2cc(C(=O)N3CCn4ccnc4C3)ccc2nc1-c1ccc(Cl)cc1 [compound 705, 5-(3-(4-chlorophenyl)-7-(5,6,7,8-tetrahydroimidazo[1,2-a]pyrazine-7-carbonyl)quinoxalin-2-yl)pentanoic acid] | 201 to 700
O=C(N[C@@H]1CCCc2ccccc21)c1ccc2nc(-c3ccccc3)c(CCCC(O)C(=O)O)nc2c1 (stereo partly drawn) [compound 706, 2-hydroxy-5-(3-phenyl-7-(((R)-1,2,3,4-tetrahydronaphthalen-1-yl)carbamoyl)quinoxalin-2-yl)pentanoic acid] | 201 to 700
CC1(C)CCC(NC(=O)c2ccc3nc(-c4ccccc4)c(CCCCC(=O)O)nc3c2)c2ccccc21 (centres unmarked) [compound 707, 5-(7-((4,4-dimethyl-1,2,3,4-tetrahydronaphthalen-1-yl)carbamoyl)-3-phenylquinoxalin-2-yl)pentatioic acid] | 2.1 to 20
O=C(O)CCCCc1nc2cc(C(=O)N[C@H]3CCS(=O)(=O)c4ccccc43)ccc2nc1-c1ccc(F)cc1 [compound 709, (S)-5-(7-((1,1-dioxidothiochroman-4-yl)carbamoyl)-3-(4-fluorophenyl)quinoxalin-2-yl)pentanoic acid] | 2.1 to 20
O=C(O)CCCCc1nc2cc(C(=O)N[C@H]3CC(=O)Nc4ccccc43)ccc2nc1-c1ccccc1 [compound 710, (S)-5-(7-((2-oxo-1,2,3,4-tetrahydroquinolin-4-yl)carbamoyl)-3-phenylquinoxalin-2-yl)pentanoic acid] | 20.1 to 200
O=C(O)CCCCc1nc2cc(C(=O)N[C@@H]3CC(=O)Nc4ccccc43)ccc2nc1-c1ccccc1 [compound 711, (R)-5-(7-((2-oxo-1,2,3,4-tetrahydroquinolin-4-yl)carbamoyl)-3-phenylquinoxalin-2-yl)pentanoic acid] | 2.1 to 20
O=C(O)CCCCc1nc2cc(C(=O)N[C@H]3CC(=O)Nc4ccc(F)cc43)ccc2nc1-c1ccccc1 [compound 712, (S)-5-(7-((6-fluoro-2-oxo-1,2,3,4-tetrahydroquinolin-4-yl)carbamoyl)-3-phenylquinoxalin-2-yl)pentanoic acid] | 20.1 to 200
O=C(O)CCCCc1nc2cc(C(=O)N[C@@H]3CC(=O)Nc4ccc(F)cc43)ccc2nc1-c1ccccc1 [compound 713, (R)-5-(7-((6-fluoro-2-oxo-1,2,3,4-tetrahydroquinolin-4-yl)carbamoyl)-3-phenylquinoxalin-2-yl)pentanoic acid] | 2.1 to 20
O=C(O)CCCCc1nc2cc(C(=O)N[C@H]3CCS(=O)(=O)c4ccccc43)ccc2nc1-c1ccccc1 [compound 714, (S)-5-(7-((1,1-dioxidothiochroman-4-yl)carbamoyl)-3-phenylquinoxalin-2-yl)pentanoic acid] | 20.1 to 200
O=C(O)CCCCc1nc2cc(C(=O)N[C@@H]3CCS(=O)(=O)c4ccccc43)ccc2nc1-c1ccccc1 [compound 715, (R)-5-(7-((1,1-dioxidothiochroman-4-yl)carbamoyl)-3-phenylquinoxalin-2-yl)pentanoic acid] | 2.1 to 20
O=C(O)CCCCc1nc2cc(C(=O)N[C@@H]3CCCc4ccccc43)c(F)cc2nc1-c1ccccc1 [compound 716, (R)-5-(6-fluoro-3-phenyl-7-((1,2,3,4-tetrahydro-naphthalen-1-yl)carbamoyl)quinoxalin-2-yl)pentanoic acid] | 2.1 to 20
